According to the METLIN SMRT retention time set (Domingo-Almenara et al. 2019):

Assay: gradient 5% acetonitrile 3 min, to 50% in 2 min, to 85% in 15 min, held 3 min, 100 µL/min
Settings: column: Zorbax Extend-C18 2.1 x 50 mm; eluents: water / acetonitrile, 0.1% formic acid
Method in brief: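 Standards, all pure, were combined into mixtures of ~100 molecules and run at 100 μL/min on a Zorbax Extend-C18 column (2.1 × 50 mm, 1.8 μm) with water and acetonitrile, each containing 0.1% formic acid. A coupled quadrupole time-of-flight mass spectrometer operated in positive and negative ionization mode. Retention time values come from computationally picked adduct peaks, each inspected manually.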

Structure (SMILES)	RP-LC retention time [s]
O=C(NC1CC1)[C@@H]1C[C@H](Oc2ccccc2)CN1S(=O)(=O)c1cccc2nsnc12	828
Cn1ccc2c(cc(C(=O)N3CCN(c4ccccn4)CC3)n2C)c1=O	560
Cc1sc(-c2ccn[nH]2)cc1NC(=O)c1ccc2nc[nH]c2c1	670
Cc1nnc2cc(N3CCN(S(=O)(=O)c4cccc(C(F)(F)F)c4)CC3)cnn12	730
Fc1ccc(-c2n[nH]c(C3CCN(C4CCCC4)CC3)n2)cc1	611
CCCN(C)c1nccn2c(=O)n(CC(=O)Nc3ccc(C)c(Cl)c3)nc12	765
CS(=O)(=O)N1C[C@H]2CCN(Cc3cccc(Cl)c3F)C[C@H]21	607
Cc1sc2cc(C(=O)NC3CCCCC3)[nH]c2c1CN1CCOCC1	671
CCOc1cc(CNc2ccc3[nH]c(=O)[nH]c3c2)cc(Br)c1OC	677
CC(=O)Nc1ccc(NC(=O)c2cc3sccc3n2Cc2ccc(Cl)cc2)cc1	965
CCC(NC(=O)C1CCN(c2cncnc2N2CCCCC2)CC1)c1cccs1 (stereo not drawn)	706
O=C(Cc1nnc(-c2ccc3ncccc3c2)o1)NCc1ccc(F)c(Cl)c1	733
O=C(CC(F)(F)F)NCCc1noc(C2CC2)n1	671
O=C(c1ccc(Cn2cncn2)cc1)N1CCc2ccccc21	706
O=C(Cn1cnc(-c2noc(-c3ccncc3)n2)c1)N1CCc2ccccc21	634
O=C(c1ccco1)N1CCN(S(=O)(=O)c2cccc(-c3nc(-c4ccccc4)no3)c2)CC1	1060
COc1ccc(C(C)NC(=O)c2nc(N(C)C)c3c(C)cc(C)nc3n2)cc1 (stereo not drawn)	658
O=C(CCc1nc2ccccc2s1)NC1CCN(C(=O)N2C[C@H]3C[C@H](C2)[C@H]2CCCC(=O)N2C3)CC1	661
CCCCn1nc2c(S(=O)(=O)N3CCOCC3)cccn2c1=O	702
O=C(N[C@H]1C[C@@H]2C[C@H]1N(S(=O)(=O)c1cccs1)C2)c1ccccc1	833
CC(C)n1c(=O)oc2cc(-c3noc(-c4ccccc4)n3)ccc21	1060
COc1ccc(CN2C=C(C(=O)OCc3noc(-c4cccc(F)c4)n3)C(C)=NS2(=O)=O)cc1	1050
CCOC(=O)c1nc(N(Cc2cccs2)C2CCCC2)c2ccccc2n1	1120
CCOC(=O)C(CC)n1nc2nc(Nc3ccc(C)c(F)c3)cc(C)n2c1=O (stereo not drawn)	1200
O=C(NCCn1c(=O)n(Cc2ccccc2)c2cccnc21)c1ccccn1	719

Structure (SMILES)	RP-LC retention time [s]
COc1ccc(OCc2nc(-c3ccc4oc(C)nc4c3)no2)cc1	984
Cc1cc(C(F)(F)F)nn1CC(=O)NCC12CCC=C1N(C)C(=O)CC2 (stereo not drawn)	739
O=C(NCCc1c[nH]c2ccc(F)cc12)c1ccc(F)cc1	831
COc1ccccc1CCC(=O)NC1(c2nc(-c3cccnc3)no2)CCCCC1	956
CS(=O)(=O)Nc1ccc2c(c1)C(=O)Nc1cc(Cl)ccc1O2	738
Cc1cccc(-c2nc3nc(C)cc(N4CCN(c5ccccn5)CC4)n3n2)c1	638
CSc1ccc(-c2nc3ccc(Br)cn3c2NC2CCCCC2)cc1	955
CCC(C)NC(=O)Cn1nc(-c2ccccc2)c2cc(Cl)ccc21 (stereo not drawn)	1060
CCN1C(=O)CCC2(C(=O)Nc3ccc(N4CCOCC4)cc3)CCCC=C12 (stereo not drawn)	663
Oc1cc2c(cc1O)C(c1ccccc1)CNCC2 (stereo not drawn)	585
CN(C)CCCc1cc(C(=O)Nc2ccc(-c3ccncc3)cc2)ccc1O	580
Cc1ccccc1-c1noc(Cn2ccn(Cc3ccc(Cl)cc3)c(=O)c2=O)n1	943
CCc1ccccc1NC(=O)NCC(c1cccnc1)c1c[nH]c2ccccc12 (stereo not drawn)	669
COc1ccccc1N1CCN(C(=O)C2=CCN(Cc3ccccc3)CC2)CC1	629
Cc1ccc2nc(-c3cccc(Br)c3)c(Nc3ccc4c(c3)OCCO4)n2c1	749
Cn1c(=O)n(-c2ccc(F)cc2)c2nc(-c3ccccc3Cl)nc(C(N)=O)c21	912
O=C(NC(=O)c1c(Cl)nc2sccn12)Nc1ccc(Cl)cc1	977
COc1ccc(-c2nc(CNC(=O)c3ccc(-c4noc(C5CC5)n4)cc3)no2)cc1	952
Cc1cc(N2CCC(C)CC2)n2ncnc2n1	790
Cc1cc2c(cc1CNC(=O)Cn1c(C(F)(F)F)nc3cc4c(cc31)OCCO4)OCCCO2	851
Cc1cc(NC(=O)CSc2cn(Cc3cccc(F)c3)c3ccccc23)no1	951
COc1ccc(C(C)NC(=O)c2cn3cc(C)ccc3n2)cc1OC (stereo not drawn)	630
CCOc1ccc(NC(=O)c2cnc3c(c2)c(=O)n(C)c(=O)n3-c2ccccc2)cc1	904
O=C(CN1CCN(c2ccccc2)CC1)Nc1nc(-c2ccccc2)cs1	740

Continued, values first:

RP-LC retention time [s]	Structure (SMILES)
614	CCCN1CCN(C(=O)c2cc3n(n2)CC(C)(C(=O)NC2CCCCCC2)N(C)C3=O)CC1 (stereo not drawn)
978	CC1CCN(C(=O)C2=CN(c3ccc(N(C)C)cc3)c3ccccc3S2(=O)=O)CC1
630	Cc1ccc(Cn2cc(-c3ccncc3)cc2C(=O)NCc2ccc(N(C)C)cc2)cc1
753	Cc1ccc2c(=O)c(C(=O)N3CCCCC3)cn(CC(=O)NCc3ccccc3)c2n1
784	CCOc1ccc(N(C)C(=O)C2CCN(S(=O)(=O)c3ccc4c(c3)NC(=O)CO4)CC2)cc1
887	CC(C)CC(=O)N1CCCC1c1nc2ccccc2s1 (stereo not drawn)
815	Cc1ccccc1NC(=O)C1CCN(S(=O)(=O)c2ccc3c(c2)NC(=O)C(C)O3)CC1 (stereo not drawn)
703	COc1ccc(N2CCN(C(=O)c3[nH]c(C)c(S(=O)(=O)N4CCOCC4)c3C)CC2)cc1
721	CCOc1cc(-c2ccc(F)cc2)nc2ccc(NC(=O)C3CC3)cc12
729	Cc1ccc(CCNC(=O)c2nc(N3CCOCC3)c3ccccc3n2)cc1
743	COCCSc1nnc(NC(=O)C2CCN(C(=O)c3ccccc3Cl)CC2)s1
803	Cc1ccccc1CNC(=O)CN1CCN(Cc2ccc(F)cc2)C1=O
675	CN(CCNC(=O)C1=Cc2ccccc2OC1)C1CCCCC1
822	Cc1cccc(NC(=O)C2CCCN2S(=O)(=O)c2cc3c(cc2Cl)NC(=O)CO3)c1 (stereo not drawn)
629	Cc1ccoc1C(=O)Nc1ccc(C(N)=O)cc1
804	CCNC(=O)CN1C(=O)C2CCCCN2c2ccc(S(=O)(=O)N(CC)CC)cc21 (stereo not drawn)
765	CCc1nn2c(CNC(=O)C3CCCO3)c(-c3ccccc3)nc2s1 (stereo not drawn)
761	O=C(Nc1ccccc1F)C1CCc2sc(C(=O)N3CCCC3)cc2C1 (stereo not drawn)
804	Cc1ccc(CNC(=O)C2CCCN(C(=O)c3[nH]c(C)cc3C)C2)cc1 (stereo not drawn)
654	Cc1cnc(C2CC2)n1C1CCN(S(=O)(=O)c2cccc(F)c2)C1 (stereo not drawn)

RP-LC retention time [s]	Structure (SMILES)
750	Cc1ccc(S(=O)(=O)N2CCC3(CC2)NCCN=C3NCc2ccccc2F)cc1C
734	Cc1ccc(-n2cc3c(c(C(=O)Nc4cccnc4)c2=O)CC(C)(C)CC3=O)cc1
1110	CC1CCC(NC(=O)c2nnc(-c3ccc(S(=O)(=O)N4CCCCC4)cc3)o2)CC1 (stereo not drawn)
907	COc1cc(OC)cc(C(=O)N2CCC3(CC2)N=C(c2ccc(Br)cc2)C(=O)N3)c1
590	CCC(=O)NCc1nc2c(n1CC)CN(S(=O)(=O)c1cc(C)ccc1C)CC2
836	Cc1ccc(C)c(NC(=O)N2C[C@@H](F)C[C@H]2C(=O)N2CCc3ccccc3C2)c1
1020	O=C(c1ccc(Br)o1)N1CCN(c2ccc(-c3noc(C4CC4)n3)cc2)CC1
764	CC(C)NC(=O)c1ccc2c(c1)CCN2C(=O)C1CCC1
872	CC(=O)Nc1ccc(-c2noc(C3CCCN(C(=O)Cc4ccc(Br)cc4)C3)n2)cc1 (stereo not drawn)
757	Cc1ccc(-n2ccn3c(CCC(=O)NCCc4c[nH]c5ccccc45)nnc3c2=O)cc1C
710	Cc1cc(C(=O)NC2CCCC2)c2cc(F)ccc2n1
890	Cc1ccc(CNc2c(-c3ccc(F)c(F)c3)nc3ncccn23)cc1
1160	CCN(C(=O)CSC1=Nc2ccccc2NC(CC(=O)OC)=C1)c1cccc(C)c1
717	CC(=O)N1CCc2cc(N3CC(C(=O)Nc4ccc(C)cc4F)CC3=O)ccc21 (stereo not drawn)
895	COc1ccc(-n2nc(C)c3sc(N4CCCC(C(=O)NCC5CCCO5)C4)nc32)cc1 (stereo not drawn)
526	O=C(NCc1cccnc1)C1CCc2sc(C(=O)N3CCOCC3)cc2C1 (stereo not drawn)
861	CCc1noc(NC(C)=O)c1-c1ccc(C)c(S(=O)(=O)N(C)c2ccc(C)cc2)c1
838	O=C(C1=CN(c2ccc(Br)cc2)c2ccccc2S1(=O)=O)N1CCCC1
871	Cc1cc(C)n(-c2nccnc2SCC(=O)Nc2cccc(Cl)c2C)n1
